Biological target: DGKα (Homo sapiens, UniProt P23743)
Assay: Human DGKα kinase activity inhibition assay (ADP-Glo)
Assay type: biochemical
Set-up: made in house; host or cells: Sf9 insect cells, baculovirus
Conditions: in vitro, C-terminally FLAG-tagged recombinant full-length human DGKα, 1,2-dioleoyl-sn-glycerol substrate, ADP-Glo readout
Procedure: Human DGKα Kinase Activity Inhibition Assay. Human DGKα inhibitory activity of compounds of the present invention was quantified employing the human DGKα kinase activity assay as described in the following paragraphs. In essence, the enzyme activity was measured by quantification of the adenosine-di-phosphate (ADP) generated as a co-product of the enzyme reaction via the “ADP-Glo™ Kinase Assay” kit from the company Promega. This detection system works as follows: In a first step the ATP not consumed in the kinase reaction is quantitatively converted to […] (“ADP-Glo-reagent”), then the adenylate cyclase is stopped and the ADP generated in the kinase reaction converted to ATP, which subsequently generates in a luciferase-based reaction a glow-luminescence signal (“Kinase Detection Reagent”). C-terminally FLAG-tagged, recombinant full-length human DGKα (expressed in baculovirus infected insect cells, purified using anti-Flag pulldown and size exclusion chromatography as described below, DGKa_hu_1) was used as enzyme. As substrate for the kinase 1,2-dioleoyl-sn-glycerol, reconstituted in octyl-β-D-glucopyranoside micelles, was used. For the preparation of the micelles, 1 volume of a 16.1 mM solution of 1,2-dioleoyl-sn-glycerol (Avanti, Cat. #08001-25G) in chloroform was slowly evaporated using a nitrogen stream. Subsequently, 22.55 volumes of a 510 mM solution of octyl-β-D-glucopyranoside (Sigma-Aldrich, Cat. #08001-10G) in 50 mM MOPS buffer (pH 7.4) were added, and the mixture was sonicated in an ultrasonic bath for 20 s. Then 35 volumes of 50 mM MOPS buffer (pH 7.4) were added to yield a solution of 0.28 mM 1,2 dioleoyl-sn-glycerol and 200 mM octyl-β-D-glucopyranoside, which was aliquoted, flash-frozen in liquid nitrogen, and stored at −20° C. until use. For each experiment, a fresh aliquot was quickly thawed and diluted 24-fold with aqueous assay buffer (described below) containing 95.7 μM adenosine triphosphate (Promega) to yield a 1.67-fold concentrated substrate solution. For the assay 50 nl of a 100-fold concentrated solution of the test compound in dimethyl sulfoxide (DMSO, Sigma) was pipetted into either a white 1536-well or a white low-volume 384-well microtiter plate (both Greiner Bio-One, Frickenhausen, Germany). […] The concentration of DGK a was adjusted depending of the activity of the enzyme lot and was chosen appropriate to have the assay in the linear range, a typical concentration is about 0.1 nM. The reaction was stopped by the addition of 2.5 μl of “ADP-Glo-reagent” (1 to 1.5 diluted with water) and the resulting mixture was incubated at 22° C. for 1 h to convert the ATP no t consumed in the kinase reaction completely to […]. […] The amount of emitted light was taken as a measure for the amount of ADP generated and thereby for the activity of the DGKα.

DGKα, sequence (P23743 with tags, fused parts or gaps): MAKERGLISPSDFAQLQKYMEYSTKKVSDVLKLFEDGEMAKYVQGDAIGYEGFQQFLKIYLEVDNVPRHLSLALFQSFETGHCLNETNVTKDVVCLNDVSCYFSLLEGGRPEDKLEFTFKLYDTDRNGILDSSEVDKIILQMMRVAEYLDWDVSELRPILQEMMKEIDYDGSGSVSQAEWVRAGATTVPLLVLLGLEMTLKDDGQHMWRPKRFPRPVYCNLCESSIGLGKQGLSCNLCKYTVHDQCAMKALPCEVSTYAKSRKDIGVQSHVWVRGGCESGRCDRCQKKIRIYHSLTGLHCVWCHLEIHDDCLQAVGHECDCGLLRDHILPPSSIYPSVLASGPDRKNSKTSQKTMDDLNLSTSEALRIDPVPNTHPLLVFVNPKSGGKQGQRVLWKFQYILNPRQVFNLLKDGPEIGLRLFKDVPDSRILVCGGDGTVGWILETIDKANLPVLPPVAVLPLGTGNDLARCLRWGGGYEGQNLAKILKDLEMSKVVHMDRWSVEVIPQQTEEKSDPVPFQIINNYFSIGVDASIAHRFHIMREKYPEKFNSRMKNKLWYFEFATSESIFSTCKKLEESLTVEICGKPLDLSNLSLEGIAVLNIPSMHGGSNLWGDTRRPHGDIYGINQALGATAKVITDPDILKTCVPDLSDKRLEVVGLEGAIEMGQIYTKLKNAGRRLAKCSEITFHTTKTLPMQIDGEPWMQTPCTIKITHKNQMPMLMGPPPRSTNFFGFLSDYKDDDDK

SMILES | IC50 [nM]
Cn1c(=O)c(C#N)c(N2CCC3(CN(c4ccc(N5CCOCC5)cc4)C3)C2)c2ccccc21 [Example 24, 1-methyl-4-{2-[4-(morpholin-4-yl)phenyl]-2,6-diazaspiro[3.4]octan-6-yl}-2-oxo-1,2-dihydroquinoline-3-carbonitrile] | 1700
Cn1c(=O)c(C#N)c(N2CCC3(CCN(c4ccc(F)cc4)C3)C2)c2ccccc21 (centres unmarked) [Example 23, 4-[7-(4-fluorophenyl)-2,7-diazaspiro[4.4]nonan-2-yl]-1-methyl-2-oxo-1,2-dihydro-quinoline-3-carbonitrile] | 532
COc1cccc(N2CCC3(CCN(c4c(C#N)c(=O)n(C)c5ccccc45)CC3)C2)c1 [Example 9, 4-[2-(3-methoxyphenyl)-2,8-diazaspiro[4.5]decan-8-yl]-1-methyl-2-oxo-1,2-dihydro-quinoline-3-carbonitrile] | 11
Cn1c(=O)c(C#N)c(N2CCC3(CCN(c4ccccc4OC(F)(F)F)C3)CC2)c2ccccc21 [Example 14, 1-methyl-2-oxo-4-{2-[2-(trifluoromethoxy)phenyl]-2,8-diazaspiro[4.5]decan-8-yl}-1,2-dihydroquinoline-3-carbonitrile] | 61
Cn1c(=O)c(C#N)c(N2CCC3(CN(c4ccc(OC(F)(F)F)cc4)C3)C2)c2ccc(Br)cc21 [Example 29, 7-bromo-1-methyl-2-oxo-4-{2-[4-(trifluoromethoxy)phenyl]-2,6-diazaspiro[3.4]octan-6-yl}-1,2-dihydroquinoline-3-carbonitrile] | 46
Cn1c(=O)c(C#N)c(N2CCC3(CN(c4ccc(Cl)cc4)C3)C2)c2ccc(Br)cc21 [Example 30, 7-bromo-4-[2-(4-chlorophenyl)-2,6-diazaspiro[3.4]octan-6-yl]-1-methyl-2-oxo-1,2-dihydroquinoline-3-carbonitrile] | 75
Cn1c(=O)c(C#N)c(N2CCC3(CCN(c4ccc(F)cc4)C3)CC2)c2ccccc21 [Example 2, 4-[2-(4-fluorophenyl)-2,8-diazaspiro[4.5]decan-8-yl]-1-methyl-2-oxo-1,2-dihydroquinoline-3-carbonitrile] | 38
Cn1c(=O)c(C#N)c(N2CCC3(CN(c4ccc(Cl)cc4)C3)C2)c2ccccc21 [Example 6, 4-[2-(4-chlorophenyl)-2,6-diazaspiro[3.4]octan-6-yl]-1-methyl-2-oxo-1,2-dihydroquinoline-3-carbonitrile] | 10
Cn1c(=O)c(C#N)c(N2CC3(CCN(c4ccc(OC(F)(F)F)cc4)C3)C2)c2ccccc21 [Example 18, 1-methyl-2-oxo-4-{6-[4-(trifluoromethoxy)phenyl]-2,6-diazaspiro[3.4]octan-2-yl}-1,2-dihydroquinoline-3-carbonitrile] | 19
Cn1c(=O)c(C#N)c(N2CCC3(CCN(c4ccc(OC(F)(F)F)cc4)C3)C2)c2ccccc21 (centres unmarked) [Example 19, 1-methyl-2-oxo-4-{7-[4-(trifluoromethoxy)phenyl]-2,7-diazaspiro[4.4]nonan-2-yl}-1,2-dihydroquinoline-3-carbonitrile] | 122
Cn1c(=O)c(C#N)c(N2CCC3(CN(c4ccc(N5CCCC5=O)cc4)C3)C2)c2ccccc21 [Example 22, 1-methyl-2-oxo-4-{2-[4-(2-oxopyrrolidin-1-yl)phenyl]-2,6-diazaspiro[3.4]octan-6-yl}-1,2-dihydroquinoline-3-carbonitrile] | 477
COc1ccc(N2CC3(CCN(c4c(C#N)c(=O)n(C)c5ccccc45)C3)C2)cc1 [Example 5, 4-[2-(4-methoxyphenyl)-2,6-diazaspiro[3.4]octan-6-yl]-1-methyl-2-oxo-1,2-dihydro-quinoline-3-carbonitrile] | 103
COc1cccc(N2CC3(CCN(c4c(C#N)c(=O)n(C)c5ccccc45)C3)C2)c1 [Example 20, 4-[2-(3-methoxyphenyl)-2,6-diazaspiro[3.4]octan-6-yl]-1-methyl-2-oxo-1,2-dihydroquinoline-3-carbonitrile] | 155
Cn1c(=O)c(C#N)c(N2CCC3(CCN(c4ccc(OC(F)(F)F)cc4)C3)CC2)c2ccccc21 [Example 8, 1-methyl-2-oxo-4-{2-[4-(trifluoromethoxy)phenyl]-2,8-diazaspiro[4.5]decan-8-yl}-1,2-dihydroquinoline-3-carbonitrile] | 17
Cn1c(=O)c(C#N)c(N2CCC3(CCN(c4ccc(F)c(F)c4)C3)CC2)c2ccccc21 [Example 3, 4-[2-(3,4-difluorophenyl)-2,8-diazaspiro[4.5]decan-8-yl]-1-methyl-2-oxo-1,2-dihydro-quinoline-3-carbonitrile] | 39
Cn1c(=O)c(C(N)=O)c(N2CCC3(CCN(c4ccc(OC(F)(F)F)cc4)C3)CC2)c2ccccc21 [Example 25, 1-methyl-2-oxo-4-{2-[4-(trifluoromethoxy)phenyl]-2,8-diazaspiro[4.5]decan-8-yl}-1,2-dihydroquinoline-3-carboxamide] | 3
COCCN(C)c1ccc2c(N3CCC4(CCN(c5cccc(Cl)c5)C4)CC3)c(C(N)=O)c(=O)n(C)c2c1 [Example 36, 4-[2-(3-chlorophenyl)-2,8-diazaspiro[4.5]decan-8-yl]-7-[(2-methoxyethyl)(methyl)amino]-1-methyl-2-oxo-1,2-dihydroquinoline-3-carboxamide] | 49
COCCN(C)c1ccc2c(N3CCC4(CCN(c5cccc(Cl)c5)C4)CC3)c(C#N)c(=O)n(C)c2c1 [Example 34, 4-[2-(3-chlorophenyl)-2,8-diazaspiro[4.5]decan-8-yl]-7-[(2-methoxyethyl)(methyl)amino]-1-methyl-2-oxo-1,2-dihydroquinoline-3-carbonitrile] | 19
Cn1c(=O)c(C(N)=O)c(N2CCC3(CN(c4ccc(F)cc4)C3)C2)c2ccccc21 [Example 27, 4-[2-(4-fluorophenyl)-2,6-diazaspiro[3.4]octan-6-yl]-1-methyl-2-oxo-1,2-dihydroquinoline-3-carboxamide] | 158
Cn1c(=O)c(C#N)c(N2CCC3(CN(c4ccc(F)cc4)C3)C2)c2ccccc21 [Example 4, 4-[2-(4-fluorophenyl)-2,6-diazaspiro[3.4]octan-6-yl]-1-methyl-2-oxo-1,2-dihydroquinoline-3-carbonitrile] | 35
CN1CCN(c2ccc3c(N4CCC5(CCN(c6cccc(OC(F)(F)F)c6)C5)CC4)c(C#N)c(=O)n(C)c3c2)CC1 [Example 31, 1-methyl-7-(4-methylpiperazin-1-yl)-2-oxo-4-{2-[3-(trifluoromethoxy)phenyl]-2,8-diazaspiro[4.5]decan-8-yl}-1,2-dihydroquinoline-3-carbonitrile] | 645
Cn1c(=O)c(C#N)c(N2CCC3(CN(c4ccc(OC(F)(F)F)cc4)C3)C2)c2ccccc21 [Example 17, 1-methyl-2-oxo-4-{2-[4-(trifluoromethoxy)phenyl]-2,6-diazaspiro[3.4]octan-6-yl}-1,2-dihydroquinoline-3-carbonitrile] | 3.5
COCCN(C)c1ccc2c(N3CCC4(CCN(c5cccc(OC(F)(F)F)c5)C4)CC3)c(C#N)c(=O)n(C)c2c1 [Example 32, 7-[(2-methoxyethyl)(methyl)amino]-1-methyl-2-oxo-4-{2-[3-(trifluoromethoxy)phenyl]-2,8-diazaspiro[4.5]decan-8-yl}-1,2-dihydroquinoline-3-carbonitrile] | 38
CN(C)c1cccc(N2CCC3(CCN(c4c(C#N)c(=O)n(C)c5ccccc45)CC3)C2)c1 [Example 11, 4-{2-[3-(dimethylamino)phenyl]-2,8-diazaspiro[4.5]decan-8-yl}-1-methyl-2-oxo-1,2-dihydroquinoline-3-carbonitrile] | 28
Cn1c(=O)c(C#N)c(N2CC3(CCN(c4ccc(F)cc4)C3)C2)c2ccccc21 [Example 7, 4-[6-(4-fluorophenyl)-2,6-diazaspiro[3.4]octan-2-yl]-1-methyl-2-oxo-1,2-dihydroquinoline-3-carbonitrile] | 63
COCCN(C)c1ccc2c(N3CCC4(CCN(c5cccc(OC(F)(F)F)c5)C4)CC3)c(C(N)=O)c(=O)n(C)c2c1 [Example 35, 7-[(2-methoxyethyl)(methyl)amino]-1-methyl-2-oxo-4-{2-[3-(trifluoromethoxy)phenyl]-2,8-diazaspiro[4.5]decan-8-yl}-1,2-dihydroquinoline-3-carboxamide] | 68

Reference: patent US20230064809A1, “SUBSTITUTED AMINOQUINOLONES AS DGKALPHA INHIBITORS FOR IMMUNE ACTIVATION” (Bayer Aktiengesellschaft, priority 2019, published 2023)
